In this data set the test system is CCRIS mutagenicity, Ames/micronucleus/aberration tests. Put plainly: CCRIS mutagenicity studies. As to conditions: Test System: AMES SALMONELLA TYPHIMURIUM
[1] abbreviates: Strain/Indicator: TA98, Metabolic Activation: NONE, Method: PREINCUBATION
Where [2] appears, read: Strain/Indicator: TA100, Metabolic Activation: NONE, Method: PREINCUBATION
[3] abbreviates: Strain/Indicator: TA100, Metabolic Activation: NONE, Method: STANDARD PLATE.
Setting [4] is: Strain/Indicator: TA100, Metabolic Activation: RAT, LIVER, S-9, AROCLOR 1254, Method: STANDARD PLATE.

SMILES strings stand for the structures. Calls of active or inactive are those of the source. The rule behind the calls is not given here.

Consider `ClCC(Cl)Cl`, for which the mutagenic call runs as follows: (Strain/Indicator: TA97, Metabolic Activation: HAMSTER, LIVER, S-9, AROCLOR 1254 (10%), Method: PREINCUBATION) “inactive; negative”; (Strain/Indicator: TA97, Metabolic Activation: HAMSTER, LIVER, S-9, AROCLOR 1254 (30%), Method: PREINCUBATION) “inactive; negative”; (Strain/Indicator: TA97, Metabolic Activation: NONE, Method: PREINCUBATION) “inactive; negative”; (Strain/Indicator: TA97, Metabolic Activation: NONE, Method: STANDARD PLATE) “active; positive”; (Strain/Indicator: TA97, Metabolic Activation: RAT, LIVER, S-9, AROCLOR 1254 (10%), Method: PREINCUBATION) “inactive; negative”; (Strain/Indicator: TA97, Metabolic Activation: RAT, LIVER, S-9, AROCLOR 1254 (30%), Method: PREINCUBATION) “inactive; negative”. For the same compound, the mutagenic call runs as follows: (Strain/Indicator: TA97, Metabolic Activation: RAT, LIVER, S-9, AROCLOR 1254, Method: STANDARD PLATE) “active; positive”; (Strain/Indicator: TA98, Metabolic Activation: HAMSTER, LIVER, S-9, AROCLOR 1254 (10%), Method: PREINCUBATION) “inactive; negative”; (Strain/Indicator: TA98, Metabolic Activation: HAMSTER, LIVER, S-9, AROCLOR 1254 (30%), Method: PREINCUBATION) “inactive; negative”; under setting [1], “inactive; negative”; (Strain/Indicator: TA98, Metabolic Activation: NONE, Method: STANDARD PLATE) “inactive; negative”; (Strain/Indicator: TA98, Metabolic Activation: RAT, LIVER, S-9, AROCLOR 1254 (10%), Method: PREINCUBATION) “inactive; negative”. The mutagenic call was “inactive; negative” (Strain/Indicator: TA98, Metabolic Activation: RAT, LIVER, S-9, AROCLOR 1254 (30%), Method: PREINCUBATION); “inactive; negative” (Strain/Indicator: TA98, Metabolic Activation: RAT, LIVER, S-9, AROCLOR 1254, Method: STANDARD PLATE); “inactive; negative” (Strain/Indicator: TA100, Metabolic Activation: HAMSTER, LIVER, S-9, AROCLOR 1254 (10%), Method: PREINCUBATION); “inactive; negative” (Strain/Indicator: TA100, Metabolic Activation: HAMSTER, LIVER, S-9, AROCLOR 1254 (30%), Method: PREINCUBATION); “inactive; negative” under setting [2]; “active; positive” under setting [3]. Also, the mutagenic call reads like this: (Strain/Indicator: TA100, Metabolic Activation: RAT, LIVER, S-9, AROCLOR 1254 (10%), Method: PREINCUBATION) “inactive; negative”; (Strain/Indicator: TA100, Metabolic Activation: RAT, LIVER, S-9, AROCLOR 1254 (30%), Method: PREINCUBATION) “inactive; negative”; under setting [4], “inactive; negative”; (Strain/Indicator: TA104, Metabolic Activation: NONE, Method: STANDARD PLATE) “inactive; negative”; (Strain/Indicator: TA104, Metabolic Activation: RAT, LIVER, S-9, AROCLOR 1254, Method: STANDARD PLATE) “active; positive”; (Strain/Indicator: TA1535, Metabolic Activation: HAMSTER, LIVER, S-9, AROCLOR 1254 (10%), Method: PREINCUBATION) “inactive; negative”. For the same compound, the mutagenic call was “inactive; negative” (Strain/Indicator: TA1535, Metabolic Activation: HAMSTER, LIVER, S-9, AROCLOR 1254 (30%), Method: PREINCUBATION); “inactive; negative” (Strain/Indicator: TA1535, Metabolic Activation: NONE, Method: PREINCUBATION); “inactive; negative” (Strain/Indicator: TA1535, Metabolic Activation: RAT, LIVER, S-9, AROCLOR 1254 (10%), Method: PREINCUBATION); “inactive; negative” (Strain/Indicator: TA1535, Metabolic Activation: RAT, LIVER, S-9, AROCLOR 1254 (30%), Method: PREINCUBATION); “inactive; negative” (Strain/Indicator: TA1537, Metabolic Activation: HAMSTER, LIVER, S-9, AROCLOR 1254 (10%), Method: PREINCUBATION); “inactive; negative” (Strain/Indicator: TA1537, Metabolic Activation: HAMSTER, LIVER, S-9, AROCLOR 1254 (30%), Method: PREINCUBATION). In addition, the mutagenic call reads like this: (Strain/Indicator: TA1537, Metabolic Activation: NONE, Method: PREINCUBATION) “inactive; negative”; (Strain/Indicator: TA1537, Metabolic Activation: RAT, LIVER, S-9, AROCLOR 1254 (10%), Method: PREINCUBATION) “inactive; negative”; (Strain/Indicator: TA1537, Metabolic Activation: RAT, LIVER, S-9, AROCLOR 1254 (30%), Method: PREINCUBATION) “inactive; negative”.
Take `Cc1c([N+](=O)[O-])c2ccccc2c2ccc3ccccc3c12`: the mutagenic call is, setting by setting: under setting [1], “inactive; negative”; (Strain/Indicator: TA98, Metabolic Activation: RAT, LIVER, S-9, Method: PREINCUBATION) “active; positive”; under setting [2], “inactive; negative”; under setting [3], “inactive; negative”; under setting [4], “active; positive”; (Strain/Indicator: TA100, Metabolic Activation: RAT, LIVER, S-9, Method: PREINCUBATION) “active; positive”.

The record behind these values is PubChem BioAssay AID1259407 (Chemical Carcinogenesis Research Information System (CCRIS), 2018).
